Test results from EP0170121A1, “2-Hydroxy-3-aryloxypropyl or 2-hydroxy-2-benzofuranyl ethyl tertiary amine having an anti-hyperglycaemic and/or anti-obesity activity” (BEECHAM GROUP PLC, priority 1984, dated 1986).
Structures can show the parent of a compound that is named as a salt.

Legend:
[1] = system: Female CD1 mice; experiment: Effect on energy expenditure of mice (oxygen consumption, oral dosing); format: in vivo; conditions: p.o. in water, percentage of the rate of energy expenditure of the mice dosed with water, dose differs per compound (Dose mg/kg p.o.); for Mean Energy Expenditure (0-3h): 0-3h after dosing; for Mean Energy Expenditure (0-21h): 0-21h after dosing
Procedure: Female CD1 mice each weighing approximately 24 g were given food and water ad lib before and during the experiment. The compounds were dissolved in water and these solutions were administered orally to each of 12 mice. A further 12 mice were dosed orally with water. The mice were placed in groups of threes in boxes through which air was drawn and the oxygen content of the air leaving the boxes was measured. The energy expenditure of the mice was calculated for 3 and 21 hours after dosing from the volume of air leaving the boxes and its oxygen content, following the principles described by J.B. de V. Weir, J. Physiol. (London) 109, 1-9 (1949). The results are expressed as a percentage of the rate of energy expenditure of the mice dosed with water.

[2] = system: Male Sprague-Dawley rats; experiment: Effect on energy expenditure of rats (oxygen consumption, oral dosing); format: in vivo; conditions: deprived of food, p.o. in water, percentage of the rate of energy expenditure of the rats dosed with water, dose differs per compound (Dose mg/kg p.o.); for Mean Energy Expenditure (0-3h): 0-3h after dosing; for Mean Energy Expenditure (0-21h): 0-21h after dosing
Procedure: Male Sprague-Dawley rats each weighing between 170-200 g were deprived of food for 16 hours before, and during the experiment. Water was provided ad lib at all times. The compounds were administered orally in water to 3 or 4 rats. A further 4 rats were dosed orally with water. The rats were placed in boxes through which air was drawn and the oxygen content of the air leaving the boxes was measured. The energy expenditure of the rats was calculated for 3 hours and for 21 hours after dosing from the volume of air leaving the boxes and its oxygen content, following the principles described by J.B. de V. Weir, J. Physiol. (London) 109, 1-9 (1949). The results are expressed as a percentage of the rate of energy expenditure of the rats dosed with water.

[3] = system: Female CFLP mice; experiment: Hypoglycaemic activity: subcutaneous glucose load, area under blood glucose curve; format: in vivo; conditions: female CFLP mice fasted 24 hours; compound orally 30 minutes before glucose 1 g/kg s.c.; 2 hour period; versus control mice given water; dose differs per compound (Dose µmol/kg)
Procedure: Female CFLP mice, weighing approximately 25 g, were fasted for 24 hours prior to the study. The compounds under study were administered orally as an aqueous solution to each of 6 mice. 30 minutes later a blood sample (20 µl) was obtained from the tail for the analysis of blood glucose. Immediately after taking this blood sample, glucose (1 g/kg body weight) was administered subcutaneously to each mouse. 6 mice were given water as a control. Blood samples were then obtained from each mouse at 30 minute intervals for 120 minutes.
Compounds that produced a significant (p<0.05) reduction of blood glucose, compared with control mice given water, at any time interval, were considered active. The area under the blood glucose curve over the 2 hour period after the administration of the glucose was calculated for each compound and compared with the value for control animals.

[4] = system: Isolated Rat Atria; experiment: Effect of compounds on isolated rat atria (rate of right atrium, tension of left atrium); format: cell-based, Sprague-Dawley male rats; conditions: Krebs solution 32°C, up to 3x10-^5M; for effect on tension (electrically paced left atrium): isolated rat left atrium; for effect on rate (spontaneously beating right atrium): isolated rat right atrium
Procedure: Sprague-Dawley male rats (300-400 g) are killed and the right and left atria dissected out independently and mounted on a combined tissue holder/electrode. The tissues are then immersed in a glass bath containing Krebs solution maintained at 32 °C. The rate of the spontaneously beating right atrium (via an isometric tranducer and a ratemeter) and the tension of the electrically paced left atrium (via an isometric transducer) are recorded on an M19 chart recorder.
After an initial stabilization period, the tissues are exposed to a maximal concentration of isoprenaline (10^-6M). The tissues are then washed several times until rate and tension return to baseline level. A dose-response curve to the test compound is then carried out.

[5] = system: Female BALB/c mice; experiment: Anti-obesity activity: weight of parametrial fat pads after 3 days of compound in the diet; format: in vivo; conditions: compound in diet for 3 days, dose differs per compound (Dose mg/kg diet), mean of 9 values
Procedure: Female BALB/c mice were trained to feed on powdered oxoid for 1 week. They were then housed in threes and the compound under study was added to the diet for 3 days. Food was removed at 09.00h and the mice were killed at 11.00h. The parametrial fat pads were weighed as pairs. The result is a mean of 9 values.

Structure (SMILES) | Mean Energy Expenditure (0-3h) [1] | Mean Energy Expenditure (0-21h) [1] | Mean Energy Expenditure (0-3h) [2] | Mean Energy Expenditure (0-21h) [2] | % Reduction in Area under Blood Glucose Curve [3] | effect on tension (electrically paced left atrium) [4] | effect on rate (spontaneously beating right atrium) [4] | Percentage reduction in weight of parametrial fat pads compared with controls [5]
COC(=O)c1ccc(C[C@@H](C)N(C[C@H](O)COc2ccccc2)C[C@H](O)COc2ccccc2)cc1 [Example 1, Methyl 4-[(R)-2-[bis-[(S)-2-hydroxy-3-phenoxypropyl]amino]propyl]benzoate] | 132 percentage | 107 percentage | 115 percentage | 114 percentage | 28% | no effect | no effect | 
COC(=O)c1ccc(C[C@@H](C)N(C[C@H](O)COc2ccccc2)C[C@H](O)c2ccccc2)cc1 [Example 4, Methyl 4-[(R)-2-[N-[(R)-2-hydroxy-2-phenethyl]-N-[(S)-2-hydroxy-3-phenoxypropyl]amino]propyl]benzoate, hydrochloride, monohydrate] | 145 percentage | 120 percentage | 110 percentage | 119 percentage | 12% | no effect | no effect | 25 Percentage
CC(Cc1ccc(OCC(N)=O)cc1)N(CC(O)COc1ccccc1)CC(O)c1cccc(Cl)c1.Cl (stereo not shown) [Example 8, 4-[2-[N-[2-(3-Chlorophenyl)-2-hydroxyethyl]-N-[2-hydroxy-3-phenoxypropyl]amino]propyl]phenoxyacetamide, hydrochloride] | 158 percentage | 122 percentage |  |  | 50% | no effect | no effect | 39 Percentage
COC(=O)c1ccc(CC(C)N(CC(O)COc2ccccc2)CC(O)c2ccc(O)c(CO)c2)cc1 (stereo not shown) [Example 9, Methyl 4-[2-[N-[2-hydroxy-2-[4-hydroxy-3-hydroxymethylphenyl]ethyl]-N-[2-hydroxy-3-phenoxypropyl]amino]propyl] benzoate] | 111 percentage | 106 percentage |  |  | 34% |  |  | 13 Percentage
COC(=O)COc1ccc(CC(C)N(CC(O)COc2ccc(CC(N)=O)cc2)CC(O)c2cccc(Cl)c2)cc1 (stereo not shown) [Example 11, Methyl 4-[2-[N-[2-(3-chlorophenyl)-2-hydroxyethyl]-N-[2-hydroxy-3-(4-carboxamidomethyl)phenoxypropyl]amino]propyl] phenoxyacetate, hydrochloride] | 120 percentage | 112 percentage | 136 percentage | 111 percentage | 57% |  |  | 16 Percentage
C[C@H](Cc1ccc(OCC(N)=O)cc1)N(C[C@H](O)COc1ccccc1)C[C@H](O)COc1ccccc1 [Example 14, 4-[(R)-2-[Bis-[(S)-2-hydroxy-3-phenoxypropyl]amino]propyl] phenoxyacetamide, hydrochloride] | 140 percentage | 112 percentage | 127 percentage | 117 percentage | 20% | no effect | no effect | 
CCOC(=O)COc1ccc(C[C@@H](C)N(C[C@H](O)COc2ccccc2)C[C@H](O)c2ccccc2)cc1 [Example 15, Ethyl 4-[(R)-2-[N-[(R)-2-hydroxy-2-phenethyl]-N-[(S)-2-hydroxy-3-phenoxypropyl]amino]propyl]phenoxyacetate, hydrochloride] | 144 percentage | 120 percentage | 135 percentage | 118 percentage | 42% | no effect | no effect | 32 Percentage
C[C@H](Cc1ccc(OCC(N)=O)cc1)N(C[C@H](O)COc1ccccc1)C[C@H](O)c1ccccc1 [Example 16, 4-[(R)-2-[N-[(R)-2-Hydroxy-2-phenethyl]-N-[(S)-2-hydroxy-3-phenoxypropyl]amino]propyl]phenoxyacetamide, hydrochloride, hemihydrate] | 151 percentage | 113 percentage | 141 percentage | 119 percentage |  |  |  | 27 Percentage
CCOC(=O)COc1ccc(C[C@@H](C)N(C[C@H](O)COc2ccccc2)C[C@H](O)COc2ccccc2)cc1 [Example 17, Ethyl 4-[(R)-2-[bis-[(S)-2-hydroxy-3-phenoxypropyl]amino]propyl]phenoxyacetate, hydrochloride, hemihydrate] |  |  | 120 percentage | 105 percentage |  |  |  | 37 Percentage
CCOC(=O)COc1ccc(C[C@@H](C)N(C[C@H](O)COc2ccccc2)C[C@H](O)c2cccc(Cl)c2)cc1 [Example 18, Ethyl 4-[(R)-2-[N-[(R)-2-(3-chlorophenyl)-2-hydroxyethyl]-N-[(S)-2-hydroxy-3-phenoxypropyl]amino]propyl]phenoxyacetate, hemifumarate] |  |  | 126 percentage | 109 percentage | 45% |  |  | 21 Percentage
C[C@H](Cc1ccc(OCCN)cc1)N(C[C@H](O)COc1ccccc1)C[C@H](O)c1ccccc1 [Example 20, 4-[(R)-2-[N-[(R)-2-Hydroxy-2-phenethyl]-N-[(S)-2-hydrpxy-3-phenoxypropyl]amino]propyl]phenoxyethylamine, dihydrochloride, hydrate] | 146 percentage | 120 percentage | 112 percentage | 110 percentage | 40% |  |  | 15 Percentage
CCOC(=O)COc1ccc(C[C@@H](C)N(C[C@@H](O)COc2ccccc2)C[C@H](O)c2ccccc2)cc1 [Example 23, Ethyl 4-[(R)-2-[N-[(R-2-hydroxy-2-phenethyl]-N-[(R)-2-hydroxy-3-phenoxypropyl]amino]propyl]phenoxyacetate, hydrochloride] |  |  | 129 percentage | 111 percentage |  |  |  | 31 Percentage
